The source of these data is article PMC2248166, “Quantitative peptide binding motifs for 19 human and mouse MHC class I molecules derived using positional scanning combinatorial peptide libraries” (Immunome Research, 2008).

Where a SMILES comes first, the peptide text is derived from it.

For this assay, the target named is HLA A*3201 (Homo sapiens, UniProt P04439, A270S/D101S/D185E/E176V/E277Q/F133L/G103R/G107R/G231S/H175R/I121M/I218V/I322F/K168Q/L105A/L300P/L318F/M331R/P208A/P217A/Q94H/R106L/R138Q/S129P/T104I/T323A/T345S/V100E/V321M/V358M). Briefly: biochemical. It is filed as binding.

In the case of `CC[C@H](C)[C@H](NC(=O)[C@@H](N)CCCCN)C(=O)N[C@@H](CC(N)=O)C(=O)N[C@@H](CCSC)C(=O)N[C@@H](CCC(N)=O)C(=O)N[C@H](C(=O)N[C@@H](CC(C)C)C(=O)N[C@@H](CC(C)C)C(=O)N[C@@H](Cc1ccccc1)C(=O)O)[C@@H](C)O` [3102.0488] (H-KINMQTLLF-OH), the IC50 (in general, the midpoint of a concentration-inhibition curve) was found to be 10 nM.
In the case of `CC[C@H](C)[C@H](NC(=O)[C@H](CC(N)=O)NC(=O)[C@H](Cc1ccccc1)NC(=O)[C@@H](NC(=O)[C@H](CCCCN)NC(=O)[C@H](Cc1ccccc1)NC(=O)[C@H](CC(N)=O)NC(=O)[C@@H](NC(=O)[C@H](C)N)[C@@H](C)CC)[C@@H](C)CC)C(=O)O` [3102.0489] (H-AINFKIFNI-OH) it was 22 nM.
For `CC[C@H](C)[C@H](NC(=O)[C@@H](NC(=O)[C@@H](N)CCCCN)[C@@H](C)O)C(=O)N[C@@H](Cc1ccc(O)cc1)C(=O)N[C@@H](CC(C)C)C(=O)N[C@@H](CC(C)C)C(=O)N[C@@H](CO)C(=O)N[C@@H](CC(C)C)C(=O)N[C@@H](Cc1ccccc1)C(=O)O` [3102.0490] (H-KTIYLLSLF-OH), the midpoint of inhibition, the IC50, lay at 10 nM.
The molecule `CC[C@H](C)[C@H](NC(=O)[C@H](CC(C)C)NC(=O)[C@H](CC(C)C)NC(=O)[C@H](Cc1ccccc1)NC(=O)[C@H](Cc1c[nH]cn1)NC(=O)[C@H](C)NC(=O)[C@H](CO)NC(=O)[C@@H](N)CCCCN)C(=O)N[C@@H](Cc1ccccc1)C(=O)O` [3102.0491] (H-KSAHFLLIF-OH) showed an IC50 of 0.19 nM.
As for `CC[C@H](C)[C@H](NC(=O)[C@H](CO)NC(=O)[C@@H](NC(=O)CNC(=O)[C@H](Cc1ccccc1)NC(=O)[C@H](CO)NC(=O)[C@H](CC(N)=O)NC(=O)[C@H](CC(C)C)NC(=O)[C@@H](N)CCCCN)C(C)C)C(=O)O` [3102.0496] (H-KLNSFGVSI-OH), 0.55 nM corresponded to half-maximal inhibition (IC50).
With `CC[C@H](C)[C@H](NC(=O)[C@H](CCSC)NC(=O)[C@@H](NC(=O)[C@H](CO)NC(=O)[C@H](CO)NC(=O)[C@H](Cc1ccc(O)cc1)NC(=O)[C@H](CO)NC(=O)[C@H](CCSC)NC(=O)[C@@H](N)CCCCN)C(C)C)C(=O)O` [3102.0497] (H-KMSYSSVMI-OH) the figure was 14 nM.
`CSCC[C@H](NC(=O)[C@@H](N)Cc1c[nH]cn1)C(=O)N[C@@H](CC(C)C)C(=O)N[C@@H](CCC(=O)O)C(=O)N[C@@H](Cc1ccccc1)C(=O)N[C@@H](CC(C)C)C(=O)N[C@@H](Cc1ccc(O)cc1)C(=O)N[C@@H](CO)C(=O)N[C@@H](Cc1ccccc1)C(=O)O` [3102.0499] (H-HMLEFLYSF-OH) gave an IC50 of 0.3 nM.
With `CC[C@H](C)[C@H](NC(=O)[C@@H](NC(=O)[C@H](Cc1ccc(O)cc1)NC(=O)[C@H](CC(C)C)NC(=O)[C@@H](N)CCCCN)[C@@H](C)O)C(=O)N[C@H](C(=O)N[C@@H](CO)C(=O)N[C@H](C(=O)N[C@@H](CC(C)C)C(=O)O)[C@@H](C)O)C(C)C` [3102.0508] (H-KLYTIVSTL-OH) the figure was 7.1 nM.
`CC[C@H](C)[C@H](NC(=O)[C@H](C)NC(=O)[C@H](CCC(N)=O)NC(=O)[C@H](Cc1ccccc1)NC(=O)[C@H](C)NC(=O)[C@H](Cc1ccccc1)NC(=O)[C@H](CO)NC(=O)[C@@H](NC(=O)[C@@H](N)CCCNC(=N)N)[C@@H](C)O)C(=O)O` [3102.0512] (H-RTSFAFQAI-OH) registered an IC50 of 3.8 nM.
With `CC(C)C[C@H](N)C(=O)N[C@H](C(=O)NCC(=O)N[C@H](C(=O)N[C@@H](Cc1ccccc1)C(=O)N[C@H](C(=O)N[C@H](C(=O)N[C@@H](C)C(=O)N[C@@H](Cc1ccccc1)C(=O)O)[C@@H](C)O)C(C)C)[C@@H](C)O)[C@@H](C)O` [3102.0515] (H-LTGTFVTAF-OH), 8.8 nM corresponded to half-maximal inhibition (IC50).
`CSCC[C@H](NC(=O)[C@@H](N)C(C)C)C(=O)N[C@@H](Cc1ccc(O)cc1)C(=O)N[C@@H](C)C(=O)N[C@@H](Cc1ccccc1)C(=O)N[C@H](C(=O)N[C@H](C(=O)N1CCC[C@H]1C(=O)N[C@@H](CC(C)C)C(=O)O)[C@@H](C)O)[C@@H](C)O` [3102.0516] (H-VMYAFTTPL-OH) registered an IC50 of 0.29 nM.
